What was measured:
MCF-7 cells = assay: MCF-7 cell proliferation inhibition assay (CTG); format: cell-based; details: Homo sapiens
Procedure: (4) MCF-7, T-47D, and CAMA-1 Cell Proliferation Inhibition Assay
The inhibitory effect of the test compound of formula (I) on the proliferation of MCF-7, CAMA-1, and T-47D cells was analyzed. For MCF-7 cells, ten concentration gradients ranging from 100 nM to 0.0003815 nM were tested, with three replicates for each concentration. For CAMA-1 cells, nine concentration gradients ranging from 100 nM to 0.001526 nM were tested, also with three replicates for each concentration. For T-47D cells, nine concentration gradients ranging from 2 μM to 0.00512 nM were tested, with three replicates for each concentration. Each experiment was conducted twice independently.
MCF-7 cells that reached 80% cell fusion were digested using trypsin, centrifuged, resuspended, and counted. Cell suspensions were prepared using the corresponding culture medium, and 45 μL of the suspension was added to each well of a 384-well plate. The plate was then incubated at 37° C. in a cell incubator with 5% CO2. The test compound of formula (I) was dissolved in DMSO to an initial concentration of 20 μM and subjected to a 4-fold serial dilution to achieve ten different concentrations. After overnight incubation, the diluted compound was further diluted with the corresponding cell culture medium. The resulting mixture was transferred to the respective wells of the cell plate, starting with a final concentration of 100 nM, followed by a 4-fold serial dilution to achieve ten concentrations. The positive control wells contained 2 μM fulvestrant. The plate was mixed, centrifuged, and incubated at 37° C. in a cell incubator with 5% CO2 for the specified number of days according to the above table.
After incubation for the specified time, the cell culture plate was removed, and the CTG reagent was added. The plate was thoroughly mixed, centrifuged, and incubated at room temperature for 10 minutes. The readings were taken using the Envision multi-label analyzer. Data analysis:
Positive control: cells treated with 2 μM fulvestrant; negative control: cells treated with 0.5% DMSO. […]

CYP1A2 = target: T1, CYP1A2 (Homo sapiens, UniProt P05177); assay: Inhibition of cytochrome P450 isozymes in human liver microsomes, CYP1A2; format: in vitro ADME; details: phenacetin substrate
T1 sequence (P05177 1-516): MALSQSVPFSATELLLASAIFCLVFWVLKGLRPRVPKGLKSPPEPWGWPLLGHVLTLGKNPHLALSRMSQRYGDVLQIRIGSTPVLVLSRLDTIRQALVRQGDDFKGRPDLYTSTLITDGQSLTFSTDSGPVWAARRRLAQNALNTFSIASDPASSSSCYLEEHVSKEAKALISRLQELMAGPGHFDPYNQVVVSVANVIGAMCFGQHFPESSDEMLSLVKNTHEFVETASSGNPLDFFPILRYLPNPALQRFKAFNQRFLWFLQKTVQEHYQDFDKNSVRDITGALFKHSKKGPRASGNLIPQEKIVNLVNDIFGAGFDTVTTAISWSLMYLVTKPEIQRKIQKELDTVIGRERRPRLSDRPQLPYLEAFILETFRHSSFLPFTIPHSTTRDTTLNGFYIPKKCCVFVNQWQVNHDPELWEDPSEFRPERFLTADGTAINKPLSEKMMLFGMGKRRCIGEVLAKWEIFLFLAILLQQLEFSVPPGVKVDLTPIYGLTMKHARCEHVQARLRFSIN
Procedure: (§1) (1) Study on the Inhibition of Cytochrome P450 Isozymes
(§2) The probe substrate, test compound, human liver microsomes, and cofactors were incubated together. The concentration of the metabolic product of the probe substrate was detected using LC-MS/MS to calculate the IC50 values. In the vehicle control samples, the test compound was replaced with an equal volume of vehicle, and the enzyme activity of the vehicle control samples was set as 100%. […]
(§3) Upon reaching the respective reaction times for the incubation systems of the various isoenzymes, 200 μL of termination solution containing the appropriate internal standard was added to the reaction plate to terminate the reaction. […] The metabolites of the probe substrates were then analyzed using LC-MS/MS. […]
(§4) The activity of various CYP isoenzymes was reflected by the production rate of metabolites from each probe substrate. […] The residual activity percentage of each isoenzyme was determined by comparing the metabolite production rate of the probe substrate in the presence of different concentrations of the test compound or positive inhibitor to that of the vehicle control samples, then multiplying by 100%. […]

CYP3A = CYP3A (Homo sapiens, UniProt P08684); assay: Inhibition of cytochrome P450 isozymes in human liver microsomes, CYP3A; format: in vitro ADME
Procedure: as §1, §2, §3, §4

Chain of CYP3A (P08684 2-503): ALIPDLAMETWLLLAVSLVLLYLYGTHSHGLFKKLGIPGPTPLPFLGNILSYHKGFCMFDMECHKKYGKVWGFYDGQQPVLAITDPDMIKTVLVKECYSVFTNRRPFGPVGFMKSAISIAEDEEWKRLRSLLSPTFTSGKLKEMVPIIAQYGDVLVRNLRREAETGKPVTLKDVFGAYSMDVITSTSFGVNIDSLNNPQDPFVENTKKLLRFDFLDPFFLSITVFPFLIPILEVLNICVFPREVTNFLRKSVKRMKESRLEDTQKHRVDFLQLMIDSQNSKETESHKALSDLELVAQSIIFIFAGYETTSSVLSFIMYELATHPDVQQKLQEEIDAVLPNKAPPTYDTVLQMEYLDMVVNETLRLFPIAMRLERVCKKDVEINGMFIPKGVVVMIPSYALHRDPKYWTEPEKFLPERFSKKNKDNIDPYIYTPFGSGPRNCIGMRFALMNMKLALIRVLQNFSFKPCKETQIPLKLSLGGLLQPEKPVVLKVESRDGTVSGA

FCCCN1CC[C@H](Nc2cnc(C3=C(CC(F)(F)F)CCCc4c3ccc3[nH]nc(F)c43)cn2)C1 [Compound of formula (I)]
IC50 (MCF-7 cells; MCF7, First experiment): 0.19 nM | IC50 (MCF-7 cells; MCF7, Mean ± SD): 0.18 ± 0.013 nM | IC50 (MCF-7 cells; MCF7, Second experiment): 0.16 nM | IC50 (CYP1A2): 97.2 µM | IC50 at 3 min (CYP3A; probe midazolam, midazolam as the substrate): 8.38 µM | IC50 at 10 min (CYP3A; probe testosterone, testosterone as the substrate): 10.9 µM

— patent US12410155B2, “Salt form and crystal form of tetrahydrocyclohepta indazole compound” (Zhejiang Yangli Pharmaceutical Technology Co., Ltd., priority 2021, dated 2025)
